Values quoted from earlier work as cited in paper PMC5074076, “Novel minimal physiologically-based model for the prediction of passive tubular reabsorption and renal excretion clearance” (European Journal of Pharmaceutical Sciences, 2016).

Conditions: healthy subjects; plasma and urine data from same subjects; normalised for subject weight and body surface area where necessary; ref Table S2.1; cited from earlier work

First: CN1CCN(C(=O)OC2c3nccnc3C(=O)N2c2ccc(Cl)cn2)CC1 (stereo not shown) [Zopiclone]
Second: CN1CCN(c2c(F)cc3c(=O)c(C(=O)O)cn(CCF)c3c2F)CC1 [Fleroxacin]
The “Overall weighted mean CLR” value of the first is 5.2-fold lower: 13.0 mL/min for the first, 67.5 mL/min for the second.

Going from `CC1(C)S[C@@H]2[C@H](NC(=O)C(C(=O)O)c3ccccc3)C(=O)N2[C@H]1C(=O)O` (stereo partly shown) [Carbenicillin] to `CC1(C)S[C@@H]2[C@H](NC(=O)Cc3ccccc3)C(=O)N2[C@H]1C(=O)O` [Benzylpenicillin], the “Overall weighted mean CLR” value rises from 127.0 mL/min to 316.8 mL/min (2.5-fold).

First: CO[C@H]1/C=C/O[C@@]2(C)Oc3c(C)c(O)c4c(c3C2=O)C2=NC3(CCN(CC(C)C)CC3)NC2=C(NC(=O)/C(C)=C\C=C\[C@H](C)[C@H](O)[C@@H](C)[C@@H](O)[C@@H](C)[C@H](OC(C)=O)[C@@H]1C)C4=O [Rifabutin]
Second: CO[C@H]1/C=C/O[C@@]2(C)Oc3c(C)c(O)c4c(O)c(c(/C=N/N5CCN(C)CC5)c(O)c4c3C2=O)NC(=O)/C(C)=C\C=C\[C@H](C)[C@H](O)[C@@H](C)[C@@H](O)[C@@H](C)[C@H](OC(C)=O)[C@@H]1C [Rifampin]
The “Overall weighted mean CLR” value of the first is 3.1-fold higher: 58.4 mL/min for the first, 18.7 mL/min for the second.

Compared with `Cc1cn([C@H]2C[C@H](N=[N+]=[N-])[C@@H](CO)O2)c(=O)[nH]c1=O` [Zidovudine], `Cc1cn([C@@H]2C[C@@H](O)[C@H](CO)O2)c(=O)[nH]c1=O` [Telbivudine] is 2.2-fold lower in “Overall weighted mean CLR” value: 258.1 mL/min for the first, 116.7 mL/min for the second.

`CC1CN(c2cc3c(cc2F)c(=O)c(C(=O)O)cn3-c2ccc(F)cc2F)CCN1` (stereo not shown) [Temafloxacin] and `CCn1cc(C(=O)O)c(=O)c2cc(F)c(N3CCNC(C)C3)c(F)c21` (stereo not shown) [Lomefloxacin] are within 1.5-fold of each other in “Overall weighted mean CLR” value: 122.5 mL/min for the first, 155.8 mL/min for the second.

`CCCC(=O)Nc1ccc(OCC(O)CNC(C)C)c(C(C)=O)c1` (stereo not shown) [Acebutolol] and `CC(C)NCC(O)COc1ccc(COCCOC(C)C)cc1` (stereo not shown) [Bisoprolol] are within 1.5-fold of each other in “Overall weighted mean CLR” value: 222.8 mL/min for the first, 157.0 mL/min for the second.

`NC1CCN(c2c(F)cc3c(=O)c(C(=O)O)cn(C4CC4)c3c2Cl)C1` (stereo not shown) [Clinafloxacin] and `COc1c(N2CCNC(C)C2)c(F)cc2c(=O)c(C(=O)O)cn(C3CC3)c12` (stereo not shown) [Gatifloxacin] are within 1.5-fold of each other in “Overall weighted mean CLR” value: 191.0 mL/min for the first, 168.4 mL/min for the second.

Compared with `COc1ccc2c3c1O[C@H]1C[C@@H](O)C=C[C@@]31CCN(C)C2` [Galantamine], `Cc1cccc(C)c1NC(=O)CC12CCCN1CCC2` [Pilsicainide] is 4.1-fold higher in “Overall weighted mean CLR” value: 57.7 mL/min for the first, 234.7 mL/min for the second.

`C=CC1=C(C(=O)O)N2C(=O)[C@@H](NC(=O)/C(=N\OCC(=O)O)c3csc(N)n3)[C@H]2SC1` [Cefixime] and `CO/N=C(\C(=O)N[C@@H]1C(=O)N2C(C(=O)O)=C(CSc3nc(C)c(CC(=O)O)s3)CS[C@H]12)c1csc(N)n1` [Cefodizime] are within 1.5-fold of each other in “Overall weighted mean CLR” value: 32.5 mL/min for the first, 29.1 mL/min for the second.

First: NCc1ccccc1CC(=O)N[C@@H]1C(=O)N2C(C(=O)O)=C(CSc3nnnn3CC(=O)O)CS[C@H]12 [Ceforanide]
Second: Cn1nnnc1SCC1=C(C(=O)O)N2C(=O)[C@@H](NC(=O)[C@H](O)c3ccccc3)[C@H]2SC1 [Cefamandole]
The “Overall weighted mean CLR” value of the first is 3.5-fold lower: 46.8 mL/min for the first, 162.3 mL/min for the second.

Compared with `CC1COc2c(N3CCN(C)CC3)c(F)cc3c(=O)c(C(=O)O)cn1c23` (stereo not shown) [Ofloxacin], `C[C@H]1COc2c(N3CCN(C)CC3)c(F)cc3c(=O)c(C(=O)O)cn1c23` [Levofloxacin] is 1.6-fold lower in “Overall weighted mean CLR” value: 184.4 mL/min for the first, 116.9 mL/min for the second.

Compared with `C[C@@H](O)[C@H]1C(=O)N2C(C(=O)O)=C(S[C@H]3C[C@@H](C(=O)N4CC[C@H](NC(=O)CNC(=N)N)C4)N(C)C3)[C@H](C)[C@H]12` [Tomopenem], `CN(C)CCn1nnnc1SCC1=C(C(=O)O)N2C(=O)[C@@H](NC(=O)Cc3csc(N)n3)[C@H]2SC1` [Cefotiam] is 2.5-fold higher in “Overall weighted mean CLR” value: 77.7 mL/min for the first, 193.7 mL/min for the second.

`CC(C)(O/N=C(\C(=O)N[C@@H]1C(=O)N2C(C(=O)[O-])=C(C[n+]3ccccc3)CS[C@H]12)c1csc(N)n1)C(=O)O` [Ceftazidime] and `CO/N=C(\C(=O)N[C@@H]1C(=O)N2C(C(=O)[O-])=C(C[n+]3cccc4c3CCC4)CS[C@H]12)c1csc(N)n1` [Cefpirome] are within 1.5-fold of each other in “Overall weighted mean CLR” value: 98.0 mL/min for the first, 97.5 mL/min for the second.

Going from `NS(=O)(=O)c1cc(C2(O)NC(=O)c3ccccc32)ccc1Cl` (stereo not shown) [Chlorthalidone] to `CCCc1nc(C(C)(C)O)c(C(=O)O)n1Cc1ccc(-c2ccccc2-c2nnn[nH]2)cc1` [Olmesartan], the “Overall weighted mean CLR” value falls from 62.3 mL/min to 11.4 mL/min (5.5-fold).

Going from `NC12CC3CC(CC(C3)C1)C2` [Amantadine] to `CC12CC3CC(C)(C1)CC(N)(C3)C2` [Memantine], the “Overall weighted mean CLR” value falls from 219.2 mL/min to 117.1 mL/min (1.9-fold).

Going from `CN(C)CCc1c[nH]c2ccc(CS(=O)(=O)N3CCCC3)cc12` [Almotriptan] to `CCN(CC)CCNC(=O)c1ccc(NS(C)(=O)=O)cc1` [Sematilide], the “Overall weighted mean CLR” value falls from 399.5 mL/min to 262.0 mL/min (1.5-fold).

Compared with `CO[C@@]1(NC(=O)C(C(=O)O)c2ccsc2)C(=O)N2[C@@H](C(=O)O)C(C)(C)S[C@@H]21` (stereo partly shown) [Temocillin], `CC1(C)S[C@@H]2[C@H](NC(=O)[C@H](N)c3ccc(O)cc3)C(=O)N2[C@H]1C(=O)O` [Amoxicillin] is 4.2-fold higher in “Overall weighted mean CLR” value: 39.8 mL/min for the first, 167.0 mL/min for the second.

First: CC(CC(c1ccccc1)c1ccccc1)NC(C)(C)C (stereo not shown) [Terodiline]
Second: CNCCCN1c2ccccc2CCc2ccccc21 [Desipramine]
The “Overall weighted mean CLR” value of the first is 2.6-fold lower: 11.1 mL/min for the first, 28.6 mL/min for the second.

Compared with `C[C@H]1NCc2cc(-c3ccc4c(=O)c(C(=O)O)cn(C5CC5)c4c3OC(F)F)ccc21` [Garenoxacin], `CO/N=C1\CN(c2nc3c(cc2F)c(=O)c(C(=O)O)cn3C2CC2)CC1CN` (stereo not shown) [Gemifloxacin] is 4.2-fold higher in “Overall weighted mean CLR” value: 41.8 mL/min for the first, 176.8 mL/min for the second.

First: N[C@@H](CC(=O)N1CCn2c(nnc2C(F)(F)F)C1)Cc1cc(F)c(F)cc1F [Sitagliptin]
Second: Cc1nnc(C(=O)NC(C)(C)c2nc(C(=O)NCc3ccc(F)cc3)c(O)c(=O)n2C)o1 [Raltegravir]
The “Overall weighted mean CLR” value of the first is 6.7-fold higher: 371.2 mL/min for the first, 55.0 mL/min for the second.

Going from `Nc1nc2c(ncn2CCC(CO)CO)c(=O)[nH]1` [Penciclovir] to `C[C@H](Cn1cnc2c(N)ncnc21)OCP(=O)(O)O` [Tenofovir], the “Overall weighted mean CLR” value falls from 439.6 mL/min to 220.0 mL/min (2-fold).

Compared with `CC(C)c1nc(N(C)S(C)(=O)=O)nc(-c2ccc(F)cc2)c1/C=C/[C@@H](O)C[C@@H](O)CC(=O)O` [Rosuvastatin], `CCCCC(=O)N(Cc1ccc(-c2ccccc2-c2nnn[nH]2)cc1)[C@H](C(=O)O)C(C)C` [Valsartan] is 19-fold lower in “Overall weighted mean CLR” value: 212.5 mL/min for the first, 11.2 mL/min for the second.

Going from `O=S(=O)(O)CCS` [Mesna] to `CCS(=O)(=O)CCn1c([N+](=O)[O-])cnc1C` [Tinidazole], the “Overall weighted mean CLR” value falls from 265.8 mL/min to 11.3 mL/min (24-fold).

First: CSc1ccc(C(=O)c2[nH]c(=O)[nH]c2C)cc1 [Enoximone]
Second: CCN(CC)CCNC(=O)c1ccc(NC(C)=O)cc1 [Acecainide]
The “Overall weighted mean CLR” value of the first is 67-fold lower: 3.4 mL/min for the first, 226.7 mL/min for the second.

Compared with `CCCn1c(=O)[nH]c(=O)c2[nH]cnc21` [Enprofylline], `CN/C(=N/CCSCc1nc[nH]c1C)NC#N` [Cimetidine] is 1.5-fold higher in “Overall weighted mean CLR” value: 272.6 mL/min for the first, 417.0 mL/min for the second.

`C[C@@H](CN1CC(=O)NC(=O)C1)N1CC(=O)NC(=O)C1` [Dexrazoxane] and `Nc1cccc2c1CN(C1CCC(=O)NC1=O)C2=O` (stereo not shown) [Lenalidomide] are within 1.5-fold of each other in “Overall weighted mean CLR” value: 133.3 mL/min for the first, 190.4 mL/min for the second.

Going from `CC(C)(C)NCC(O)c1ccc(O)c(CO)c1` (stereo not shown) [Salbutamol] to `CCOc1ccc2ccccc2c1C(=O)N[C@@H]1C(=O)N2[C@@H]1SC(C)(C)[C@@H]2C(=O)O` [Nafcillin], the “Overall weighted mean CLR” value falls from 289.9 mL/min to 138.4 mL/min (2.1-fold).

`Cc1onc(-c2c(F)cccc2Cl)c1C(=O)N[C@@H]1C(=O)N2[C@@H]1SC(C)(C)[C@@H]2C(=O)O` [Flucloxacillin] and `CC1(C)S[C@@H]2[C@H](NC(=O)[C@H](NC(=O)N3CCNC3=O)c3ccccc3)C(=O)N2[C@H]1C(=O)O` [Azlocillin] are within 1.5-fold of each other in “Overall weighted mean CLR” value: 90.9 mL/min for the first, 83.3 mL/min for the second.

Going from `CO[C@@]1(NC(=O)C2SC(=C(C(N)=O)C(=O)O)S2)C(=O)N2C(C(=O)O)=C(CSc3nnnn3C)CS[C@@H]21` (stereo partly shown) [Cefotetan] to `CO/N=C(\C(=O)N[C@@H]1C(=O)N2C(C(=O)O)=CCS[C@H]12)c1csc(N)n1` [Ceftizoxime], the “Overall weighted mean CLR” value rises from 23.9 mL/min to 102.2 mL/min (4.3-fold).

Going from `COc1cc(Cc2cnc(N)nc2N)cc(OC)c1OC` [Trimethoprim] to `c1cnc2cc3c(cc2n1)[C@@H]1CNC[C@H]3C1` [Varenicline], the “Overall weighted mean CLR” value rises from 78.2 mL/min to 118.6 mL/min (1.5-fold).

Compared with `NC(=O)c1cnccn1` [Pyrazinamide], `CC(=O)N[C@H]1[C@H]([C@H](O)[C@H](O)CO)OC(C(=O)O)=C[C@@H]1N=C(N)N` [Zanamivir] is 45-fold higher in “Overall weighted mean CLR” value: 2.0 mL/min for the first, 89.1 mL/min for the second.

Compared with `Oc1ccc(/C=C/c2cc(O)cc(O)c2)cc1` [Resveratrol], `O=C(NC[C@H]1CN(c2ccc(N3CCOCC3=O)cc2)C(=O)O1)c1ccc(Cl)s1` [Rivaroxaban] is 3-fold higher in “Overall weighted mean CLR” value: 16.6 mL/min for the first, 49.8 mL/min for the second.
